In patent US20050175535A1 (CV Therapeutics, Inc., priority 2000, published 2005):
Like-named read-outs stand apart in the source and are kept apart here.

How the values were obtained:
[1] = molecular target: T1, human A1 adenosine receptors (Homo sapiens, UniProt P30542); assay: Competitive radioligand binding, [3H]CPX, CHO-hA1AdoR membranes; conditions: for Ki: [3H]CPX; for affinity for the A1 receptor expressed by CHO-K1 cells: in words
T1 construct: expressed in transfected cells
T1 sequence (P30542 1-326): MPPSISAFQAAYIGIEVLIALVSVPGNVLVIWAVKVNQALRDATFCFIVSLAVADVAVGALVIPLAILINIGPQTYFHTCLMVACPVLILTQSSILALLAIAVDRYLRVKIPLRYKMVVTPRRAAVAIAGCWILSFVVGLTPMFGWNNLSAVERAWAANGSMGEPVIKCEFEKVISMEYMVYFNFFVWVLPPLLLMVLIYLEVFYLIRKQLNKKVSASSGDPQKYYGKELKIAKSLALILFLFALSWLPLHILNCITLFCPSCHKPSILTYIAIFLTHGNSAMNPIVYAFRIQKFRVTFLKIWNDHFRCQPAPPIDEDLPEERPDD
Procedure: The cell suspensions were homogenized and centrifuged at 48,000g for 15 minutes. The pellets were washed three times by re-suspension in ice-cold Tris-HCl buffer and centrifugation. The final pellet was re-suspended in Tris-HCl, aliquoted and frozen at −80° C. until used for receptor binding assays.

[2] = molecular target: T2, human A2B adenosine receptors (Homo sapiens, UniProt P29275); assay: cAMP accumulation in HEK-293 cells expressing A2B adenosine receptors; type: cell-based; conditions: up to 100 μM
T2 construct: expressed in transfected cells
T2 sequence (P29275 1-332): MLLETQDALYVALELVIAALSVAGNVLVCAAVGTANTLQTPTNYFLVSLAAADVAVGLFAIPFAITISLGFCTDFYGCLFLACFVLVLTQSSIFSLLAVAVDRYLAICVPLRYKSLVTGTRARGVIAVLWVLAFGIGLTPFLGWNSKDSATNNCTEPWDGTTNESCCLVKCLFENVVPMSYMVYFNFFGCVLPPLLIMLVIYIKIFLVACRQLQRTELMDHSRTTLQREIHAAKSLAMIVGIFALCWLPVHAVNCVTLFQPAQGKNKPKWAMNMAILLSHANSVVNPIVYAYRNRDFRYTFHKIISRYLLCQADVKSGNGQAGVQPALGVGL

A2A adenosine receptors = A2A adenosine receptors (Rattus norvegicus, UniProt P30543); assay: Competitive radioligand binding, [3H]ZM241385, PC12 cell membranes
Chain of A2A adenosine receptors (P30543 whole entry): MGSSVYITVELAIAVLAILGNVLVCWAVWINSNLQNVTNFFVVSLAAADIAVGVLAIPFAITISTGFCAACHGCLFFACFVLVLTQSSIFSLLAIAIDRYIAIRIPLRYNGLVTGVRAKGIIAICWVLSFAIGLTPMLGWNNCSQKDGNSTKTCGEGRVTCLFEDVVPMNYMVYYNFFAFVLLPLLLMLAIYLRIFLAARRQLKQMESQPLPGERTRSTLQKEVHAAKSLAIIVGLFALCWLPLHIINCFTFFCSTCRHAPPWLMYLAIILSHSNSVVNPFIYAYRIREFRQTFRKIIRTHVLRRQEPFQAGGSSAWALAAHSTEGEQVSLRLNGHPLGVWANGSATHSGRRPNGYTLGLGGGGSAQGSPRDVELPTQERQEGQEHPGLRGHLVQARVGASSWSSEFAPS
Procedure: Rat pheochromocytoma PC12 cells were obtained from the American Type Culture Collection and grown in DMEM with 5% fetal bovine serum, 10% horse serum, 0.5 mmol/L L-glutamine, 100 U/mL penicillin, 0.1 mg/l mL streptomycin, and 2.5 μg/mL amphotericin.
Cell membranes were harvested from the cell lines by detaching cells from the culture plates into ice-cold 50 mmol/L Tris-HCl buffer (pH 7.4). The cell suspensions were homogenized and centrifuged at 48,000g for 15 minutes. The pellets were washed three times by re-suspension in ice-cold Tris-HCl buffer and centrifugation. The final pellet was re-suspended in Tris-HCl, aliquoted and frozen at −80° C. until used for receptor binding assays.
Briefly, membrane suspensions, obtained from cells expressing either adenosine receptor subtypes A1, A2A, A2B or A3were incubated for 2 hours at room temperature in 50 mmol/L Tris-HCl buffer (pH 7.4) containing ADA (1U/mL). […] At the end of the incubation, free radioligand was separated from membrane-bound radioligand by filtration through Whatman GF/C glass fiber filters using a Brandel tissue harvester (Gaithersburg, Md.). Triplicate determinations were performed for each concentration of unlabelled compound.

[3] = molecular target: A2A adenosine receptors (PC12 cells) (Rattus norvegicus, UniProt P30543); assay: Rate of decline of agonist-stimulated cAMP in PC12 cells after A2A antagonist SCH58261; conditions: agonist 1 μM, after addition of SCH58261 (20 μM)
Chain of A2A adenosine receptors (PC12 cells) (P30543 whole entry): as above

[4] = Coronary and peripheral artery blood flow velocity, HR and MAP in anesthetized closed-chest dogs; type: in vivo; design: APV: unit not given here; conditions: for APV / MAP / HR: CVT-3146 (1 ug/kg)
Procedure: Mongrel dogs (either sex, 17-21 kg; n=6) were obtained from a local vendor (Barton, Oxford, N.J.). Blood flow velocity in the coronary and cranial circumflex arteries was measured using Doppler transducer-tipped guide wires 0.014″ in diameter (FloWire®, model 1400J) purchased from Cardiometrics, Inc., Mountain View, Calif. For the positioning of the FloWire, a Judkins left coronary guiding catheter (JL3.5, 8F; Cordis) was used. Vascular arterial angiography was performed using Hypaque-76 contrast fluid (Bracco Diagnostics, Inc., Princeton, N.J.; Lot #9H28899) and a mobile fluoroscopic unit (Philips, BV 29). Systemic arterial blood pressure was measured using an electronic transducer-tipped catheter (Millar).
Following the administration of heparin (20 U/kg+100 U/hr), the pressure transducer-tipped catheter was introduced through the left femoral artery and positioned in the descending aorta. The Doppler FloWire was introduced through the right femoral artery. A peripheral vein was cannulated for the administration of all drugs. […] The sequence of positioning of the Doppler catheter was reversed in consecutive experiments. […] All parameters were allowed to recover (>30 min) to their respective baseline values between two consecutive drug administrations. […] The effect of adenosine on both coronary and peripheral artery APV was studied in five of the six dogs.
The following parameters were monitored and recorded: Average peak coronary and peripheral artery blood flow velocity (APV), mean arterial blood pressure (MAP) (mmHg), and sinus cycle length (SCL; msec). Differences in measure parameters were tested for statistical significance using ANOVA and Student's t test corrected for multiple measurements. Data are expressed as the mean±SEM.

[5] = read-out: pKi ± SEM, CHO-hA1AdoR (converted)

Compound: CCCCCn1cc(-c2nc(N)c3ncn(C4O[C@@H](CO)[C@H](O)[C@@H]4O)c3n2)cn1 (stereo partly drawn) [CVT-3033]
- Ki ([1]; read-out: Ki, CHO-hA1AdoR): 5.84 µM
- Ki [1, 5]: 5.75 µM
- affinity for the A1 receptor expressed by CHO-K1 cells [1]: relatively low affinities
- effect on cellular cAMP content [2]: neither CVT-3033 nor CVT-3146 had any detectable effects
- Ki (A2A adenosine receptors; binding affinity to A2A in PC12 cells (Ki)): 3.62 µM
- Ki (A2A adenosine receptors; pKi ± SEM, PC12 cells (A2A), [3H]ZM241385): 3.55 µM
- t0.5, rate of decline of cAMP accumulated [3]: 1.9 ± 0.1 min

Compound: CNC(=O)c1cnn(-c2nc(N)c3ncn(C4O[C@@H](CO)[C@H](O)[C@@H]4O)c3n2)c1 (stereo partly drawn) [CVT-3146]
- Ki ([1]; read-out: Ki, CHO-hA1AdoR): > 16.5 µM
- Ki [1, 5]: 25.7 µM
- affinity for the A1 receptor expressed by CHO-K1 cells [1]: relatively low affinities
- effect on cellular cAMP content [2]: neither CVT-3033 nor CVT-3146 had any detectable effects
- Ki (A2A adenosine receptors): 1.73 µM
- time for all parameters to return to baseline post injection ([4]; CVT-3146 1 μg/kg, adenosine 200 or 300 μg/kg iv bolus, anesthetized dogs): ≤ 5 min
- APV ([4]; Coronary, time 1′, Baseline 49 ± 7): 100 ± 12
- MAP ([4]; Coronary, time 1′, Baseline 128 ± 7): 112 ± 7 mmHg
- HR ([4]; Coronary, time 1′, Baseline 171 ± 8): 186 ± 7
- APV ([4]; Coronary, time 1.5′, Baseline 49 ± 7): 97 ± 11
- MAP ([4]; Coronary, time 1.5′, Baseline 128 ± 7): 110 ± 7 mmHg
- HR ([4]; Coronary, time 1.5′, Baseline 171 ± 8): 186 ± 7
- APV ([4]; Coronary, time 2′, Baseline 49 ± 7): 88 ± 11
- MAP ([4]; Coronary, time 2′, Baseline 128 ± 7): 110 ± 7 mmHg
- HR ([4]; Coronary, time 2′, Baseline 171 ± 8): 185 ± 7
- APV ([4]; Coronary, time 3′, Baseline 49 ± 7): 81 ± 11
- MAP ([4]; Coronary, time 3′, Baseline 128 ± 7): 110 ± 6 mmHg
- HR ([4]; Coronary, time 3′, Baseline 171 ± 8): 185 ± 7
- APV ([4]; Coronary, time 4′, Baseline 49 ± 7): 75 ± 11
- MAP ([4]; Coronary, time 4′, Baseline 128 ± 7): 110 ± 6 mmHg
- HR ([4]; Coronary, time 4′, Baseline 171 ± 8): 183 ± 8
- APV ([4]; Coronary, time 5′, Baseline 49 ± 7): 72 ± 11
- MAP ([4]; Coronary, time 5′, Baseline 128 ± 7): 112 ± 6 mmHg
- HR ([4]; Coronary, time 5′, Baseline 171 ± 8): 183 ± 8
- APV ([4]; Coronary, time 6′, Baseline 49 ± 7): 65 ± 11
- MAP ([4]; Coronary, time 6′, Baseline 128 ± 7): 113 ± 6 mmHg
- HR ([4]; Coronary, time 6′, Baseline 171 ± 8): 182 ± 8
- APV ([4]; Coronary, time 7′, Baseline 49 ± 7): 63 ± 12
- MAP ([4]; Coronary, time 7′, Baseline 128 ± 7): 115 ± 6 mmHg
- HR ([4]; Coronary, time 7′, Baseline 171 ± 8): 181 ± 8
- APV ([4]; Coronary, time 8′, Baseline 49 ± 7): 55 ± 11
- MAP ([4]; Coronary, time 8′, Baseline 128 ± 7): 117 ± 6 mmHg
- HR ([4]; Coronary, time 8′, Baseline 171 ± 8): 180 ± 8
- APV ([4]; Coronary, time 9′, Baseline 49 ± 7): 55 ± 11
- MAP ([4]; Coronary, time 9′, Baseline 128 ± 7): 119 ± 6 mmHg
- HR ([4]; Coronary, time 9′, Baseline 171 ± 8): 177 ± 9
- APV ([4]; Coronary, time 10′, Baseline 49 ± 7): 53 ± 11
- MAP ([4]; Coronary, time 10′, Baseline 128 ± 7): 120 ± 6 mmHg
- HR ([4]; Coronary, time 10′, Baseline 171 ± 8): 176 ± 9
- APV ([4]; Coronary, time 10″, Baseline 49 ± 7): 84 ± 4
- HR ([4]; Coronary, time 10″, Baseline 171 ± 8): 177 ± 8
- APV ([4]; Coronary, time 20″, Baseline 49 ± 7): 106 ± 8
- MAP ([4]; Coronary, time 20″, Baseline 128 ± 7): 116 ± 9 mmHg
- HR ([4]; Coronary, time 20″, Baseline 171 ± 8): 186 ± 9
- APV ([4]; Coronary, time 30″, Baseline 49 ± 7): 109 ± 10
- MAP ([4]; Coronary, time 30″, Baseline 128 ± 7): 117 ± 7 mmHg
- HR ([4]; Coronary, time 30″, Baseline 171 ± 8): 188 ± 7
- APV ([4]; Peripheral, time 1′, Baseline 34 ± 8): 42 ± 4
- MAP ([4]; Peripheral, time 1′, Baseline 116 ± 8): 102 ± 6 mmHg
- HR ([4]; Peripheral, time 1′, Baseline 162 ± 9): 182 ± 7
- APV ([4]; Peripheral, time 1.5′, Baseline 34 ± 8): 42 ± 4
- MAP ([4]; Peripheral, time 1.5′, Baseline 116 ± 8): 99 ± 7 mmHg
- HR ([4]; Peripheral, time 1.5′, Baseline 162 ± 9): 184 ± 7
- APV ([4]; Peripheral, time 2′, Baseline 34 ± 8): 40 ± 4
- MAP ([4]; Peripheral, time 2′, Baseline 116 ± 8): 98 ± 7 mmHg
- HR ([4]; Peripheral, time 2′, Baseline 162 ± 9): 187 ± 8
- APV ([4]; Peripheral, time 3′, Baseline 34 ± 8): 40 ± 4
- MAP ([4]; Peripheral, time 3′, Baseline 116 ± 8): 97 ± 7 mmHg
- HR ([4]; Peripheral, time 3′, Baseline 162 ± 9): 187 ± 8
- APV ([4]; Peripheral, time 4′, Baseline 34 ± 8): 39 ± 4
- MAP ([4]; Peripheral, time 4′, Baseline 116 ± 8): 100 ± 6 mmHg
- HR ([4]; Peripheral, time 4′, Baseline 162 ± 9): 186 ± 8
- APV ([4]; Peripheral, time 5′, Baseline 34 ± 8): 37 ± 5
- MAP ([4]; Peripheral, time 5′, Baseline 116 ± 8): 101 ± 6 mmHg
- HR ([4]; Peripheral, time 5′, Baseline 162 ± 9): 185 ± 8
- APV ([4]; Peripheral, time 10″, Baseline 34 ± 8): 34 ± 4
- MAP ([4]; Peripheral, time 10″, Baseline 116 ± 8): 114 ± 9 mmHg
- HR ([4]; Peripheral, time 10″, Baseline 162 ± 9): 167 ± 6
- APV ([4]; Peripheral, time 20″, Baseline 34 ± 8): 38 ± 4
- MAP ([4]; Peripheral, time 20″, Baseline 116 ± 8): 107 ± 8 mmHg
- HR ([4]; Peripheral, time 20″, Baseline 162 ± 9): 177 ± 7
- APV ([4]; Peripheral, time 30″, Baseline 34 ± 8): 41 ± 4
- MAP ([4]; Peripheral, time 30″, Baseline 116 ± 8): 111 ± 6 mmHg
- HR ([4]; Peripheral, time 30″, Baseline 162 ± 9): 183 ± 8
